Assay results reported in patent US20240383904A1, “HETEROCYCLIC COMPOUNDS” (Hoffmann-La Roche Inc., priority 2021, published 2024).

What follows are compounds tested against T1, MAGL (Homo sapiens, UniProt Q99685) (assay: 2-AG assay: MAGL inhibitory activity by hydrolysis of 2-arachidonoylglycerol to arachidonic acid, followed by mass spectrometry). Details: 15 min preincubation, 30 min reaction at RT, 8 μM 2-arachidonoylglycerol.
T1 sequence (Q99685 1-303): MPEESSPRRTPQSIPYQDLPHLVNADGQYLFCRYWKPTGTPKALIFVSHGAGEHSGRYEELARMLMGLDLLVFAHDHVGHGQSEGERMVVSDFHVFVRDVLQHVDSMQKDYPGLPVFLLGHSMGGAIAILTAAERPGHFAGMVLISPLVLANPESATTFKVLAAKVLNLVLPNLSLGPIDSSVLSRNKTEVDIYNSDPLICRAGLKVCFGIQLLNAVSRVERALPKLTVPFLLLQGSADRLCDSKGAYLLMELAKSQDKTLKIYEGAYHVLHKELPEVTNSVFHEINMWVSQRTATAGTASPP
Format: biochemical
Text: Compounds of formula (I) were profiled for MAGL inhibitory activity by determining the enzymatic activity by following the hydrolysis of the natural substrate 2-arachidonoylglycerol (2-AG) resulting in arachidonic acid, which can be followed by mass spectrometry. This assay is hereinafter abbreviated “2-AG assay”.
Compounds of formula (I) were profiled for MAGL inhibitory activity by determining the enzymatic activity by following the hydrolysis of the natural substrate 2-arachidonoylglycerol (2-AG) resulting in arachidonic acid, which can be followed by mass spectrometry. This assay is hereinafter abbreviated “2-AG assay”. The 2-AG assay was carried out in 384 well polypropylene assay plates. Compound dilutions were made in 100% DMSO in a polypropylene plate in 3-fold dilution steps to give a final concentration range in the assay from 12.5 μM to […]. Compound dilutions were added to MAGL protein in assay buffer (50 mM TRIS, 1 mM EDTA, 0.01% (v/v) Tween-20, 2.5% (v/v) DMSO). After shaking, the plate was incubated for 15 min at RT. To start the reaction, 2-arachidonoylglycerol in assay buffer was added. The final concentrations in the assay was […] for MAGL protein and 8 μM 2-arachidonoylglyerol. After shaking and 30 min incubation at RT, the reaction was quenched by the addition of two assay volumes of acetonitrile containing 4 μM of d8-arachidonic acid. The amount of arachidonic acid formed was traced by an online SPE system (Agilent Rapidfire) coupled to a triple quadrupole mass spectrometer. A C18 SPE cartridge (Agilent G9205A) was used in an acetonitrile/water liquid setup. The mass spectrometer was operated in negative electrospray mode following the mass transitions 303.1→259.1 for arachidonic acid and 311.1→267.0 for d8-arachidonic acid. The activity of the compounds was calculated based on the ratio of intensities [arachidonic acid/d 8-arachidonic acid].

Compound	IC50 [nM]
O=C1NC2(CO1)CN(C(=O)N1CC3(CC(CNC4(C(F)(F)F)CC4)C3)C1)C2 [Example 49, 2-[6-[[[1-(trifluoromethyl)cyclopro-ropyl]amino]methyl]-2-azaspiro[3.3]heptane-2-carbonyl]-7-oxa-2,5-diazaspiro[3.4]octan-6-one]	0.77
O=C1NC2(CO1)CN(C(=O)N1CC3(CC(NS(=O)(=O)c4cccc(C(F)(F)F)c4)C3)C1)C2 [Example 50, N-[2-(6-keto-7-oxa-2,5-diazaspiro[3.4]octane-2-carbonyl)-2-azaspiro[3.3]heptan-6-yl]-3-(trifluoromethyl)benzene-sulfonamide]	0.78
O=C1NC2(CO1)CN(C(=O)N1CC3(CC(Nc4ccc(C(F)(F)F)nn4)C3)C1)C2 [Example 51, 2-[6-[[6-(trifluoromethyl)pyrida-zin-3-yl]amino]-2-azaspiro[3.3]heptane-2-carbonyl]-7-oxa-2,5-diazaspiro[3.4]octan-6-one]	24
O=C1NC2(CCO1)CN(C(=O)N1CC3(CC(NS(=O)(=O)c4cccc(C(F)(F)F)c4)C3)C1)C2 [Example 52, N-[2-(6-keto-7-oxa-2,5-diazaspiro[3.5]nonane-2-carbonyl)-2-azaspiro[3.3]heptan-6-yl]-3-(trifluoromethyl)benzene-sulfonamide]	742
O=C1NC2(CO1)CN(C(=O)N1CC3(CC(Cn4cc(C(F)(F)F)cn4)C3)C1)C2 [Example 53, 2-[6-[[4-(trifluoromethyl)pyrazol-1-y1]methyl]-2-azaspiro[3.3]heptane-2-carbonyl]-7-oxa-2,5-diazaspiro[3.4]octan-6-one]	0.44
O=C1NC2(CO1)CN(C(=O)N1CC3(CC(n4cnc(C5CC5)n4)C3)C1)C2 [Example 56, 2-[6-(3-cyclopropyl-1,2,4-triazol-1-yl)-2-azaspiro[3.3]heptane-2-carbonyl]-7-oxa-2,5-diazaspiro[3.4]octan-6-one]	12.9
O=C1NC2(CO1)CN(C(=O)N1CC3(CCC(OCC4(C(F)(F)F)CC4)CC3)C1)C2 [Example 62, 2-[7-[[1-(trifluoromethyl)cyclopro-pyl]methoxy]-2-azaspiro[3.5]nonane-2-carbonyl]-7-oxa-2,5-diazaspiro[3.4]octan-6-one]	0.98
O=C1NC2(CO1)CN(C(=O)N1CC3(CC(c4cnc(C(F)(F)F)cn4)C3)C1)C2 [Example 63, 2-[6-[5-(trifluoromethyl)pyrazin-2-yl]-2-azaspiro[3.3]heptane-2-carbonyl]-7-oxa-2,5-diazaspiro[3.4]octan-6-one]	1.28
O=C1NC2(CO1)CN(C(=O)N1CC3(CC(OCC4(C(F)(F)F)CC4)C3)C1)C2 [Example 64, 2-[6-[[1-(trifluoromethyl)cyclopro-pyl]methoxy]-2-azaspiro[3.3]heptane-2-carbonyl]-7-oxa-2,5-diazaspiro[3.4]octan-6-one]	1.28
O=C1NC2(CO1)CN(C(=O)N1CC3(CC(NC4(C(F)(F)F)CC4)C3)C1)C2 [Example 65, 2-[6-[[1-(trifluoromethyl)cyclopro-pyl]amino]-2-azaspiro[3.3]heptane-2-carbonyl]-7-oxa-2,5-diazaspiro[3.4]octan-6-one]	1.85
O=C1NC2(CO1)CN(C(=O)N1CC3(CC(C(=O)NC4(C(F)(F)F)CC4)C3)C1)C2 [Example 67, 2-(6-keto-7-oxa-2,5-diazaspiro[3.4]octane-carbonyl)-N-[1-(trifluoromethyl)cyclopro-pyl]-2-azaspiro[3.3]heptane-6-carboxamide]	88.6
O=C1NC2(CO1)CN(C(=O)N1CC3(CC(Oc4cnc(C(F)(F)F)cn4)C3)C1)C2 [Example 70, 2-[6-[5-(trifluoromethyl)pyrazin-2-yl]oxy-2-azaspiro[3.3]heptane-2-carbonyl]-7-oxa-2,5-diazaspiro[3.4]octan-6-one]	3.68
O=C1NC2(CO1)CN(C(=O)N1CC3(CCC(Oc4cnc(C(F)(F)F)cn4)C3)C1)C2 (stereo not shown) [Example 71, 2-[6-[5-(trifluoromethyl)pyrazin-2-yl]oxy-2-azaspiro[3.4]octane-2-carbonyl]-7-oxa-2,5-diazaspiro[3.4]octan-6-one]	3.29
CS(=O)(=O)c1ccc(CC2CCC3(C2)CN(C(=O)N2CC4(COCC(=O)N4)C2)C3)cc1 (stereo not shown) [Example 72, 2-[6-(4-mesylbenzyl)-2-azaspiro[3.4]octane-2-carbonyl]-8-oxa-2,5-diazaspiro[3.5]nonan-6-one]	98.2
O=C1NC2(CO1)CN(C(=O)N1CC3(CC(Oc4ccc(C(F)(F)F)nn4)C3)C1)C2 [Example 76, 2-[6-[6-(trifluoromethyl)pyrida-zin-3-yl]oxy-2-azaspiro[3.3]heptane-2-carbonyl]-7-oxa-2,5-diazaspiro[3.4]octan-6-one]	8.33
CS(=O)(=O)c1ccc(CC2CCC3(C2)CN(C(=O)N2CC4(COC(=O)N4)C2)C3)cc1 (stereo not shown) [Example 77, 2-[6-(4-mesylbenzyl)-2-azaspiro[3.4]octane-2-carbonyl]-7-oxa-2,5-diazaspiro[3.4]octan-6-one]	0.91
O=C1NC2(CO1)CN(C(=O)N1CC3(CC(c4cnc(C(F)(F)F)nc4)C3)C1)C2 [Example 78, 2-[6-[2-(trifluoromethyl)pyrimi-din-5-yl]-2-azaspiro[3.3]heptane-2-carbonyl]-7-oxa-2,5-diazaspiro[3.4]octan-6-one]	2.3

More lines, now with the values ahead:

IC50 [nM]	Compound
9.37	O=C1CCC2(CN(C(=O)N3CC4(CC(Cn5cc(C(F)(F)F)cn5)C4)C3)C2)N1 [Example 54, 2-[6-[[4-(trifluoromethyl)pyrazol-1-y1]methyl]-2-azaspiro[3.3]heptane-2-carbonyl]-2,5-diazaspiro[3.4]octan-6-one]
9.81	O=C1CCC2(CN(C(=O)N3CC4(CC(NS(=O)(=O)c5cccc(C(F)(F)F)c5)C4)C3)C2)N1 [Example 55, N-[2-(6-keto-2,5-diazaspiro[3.4]octane-2-carbonyl)-2-azaspiro[3.3]heptan-6-yl]-3-(trifluoromethyl)benzen esulfonamide]
13.4	O=C1CCC2(CN(C(=O)N3CC4(CC(Cc5nc(C(F)(F)F)ns5)C4)C3)C2)N1 [Example 57, 2-[6-[[3-(trifluoromethyl)-1,2,4-thiadiazol-5-y1]methyl]-2-azaspiro[3.3]heptane-2-carbonyl]-2,5-diazaspiro[3.4]octan-6-one]
17.3	O=C1CCC2(CN(C(=O)N3CC4(CC(Cc5nc(C(F)(F)F)co5)C4)C3)C2)N1 [Example 58, 2-[6-[[4-(trifluoromethyl)oxazol-2-yl]methyl]-2-azaspiro[3.3]heptane-2-carbonyl]-2,5-diazaspiro[3.4]octan-6-one]
36.6	O=C1CCC2(CN(C(=O)N3CC4(CC(Cn5cnc(C(F)(F)F)c5)C4)C3)C2)N1 [Example 59, 2-[6-[[4-(trifluoromethyl)imidazol-1-yl]methyl]-2-azaspiro[3.3]heptane-2-carbonyl]-2,5-diazaspiro[3.4]octan-6-one]
0.74	O=C1CCC2(CN(C(=O)N3CC4(CCC(Cc5ccc(C(F)(F)F)cn5)CC4)C3)C2)N1 [Example 60, 2-[7-[[5-(trifluoromethyl)-2-pyridyl]methyl]-2-azaspiro[3.5]nonane-2-carbonyl]-2,5-diazaspiro[3.4]octan-6-one]
0.19	O=C1NC2(CO1)CN(C(=O)N1CC3(CCC(Cc4ccc(C(F)(F)F)cn4)CC3)C1)C2 [Example 61, 2-[7-[[5-(trifluoromethyl)-2-pyridyl]methyl]-2-azaspiro[3.5]nonane-2-carbonyl]-7-oxa-2,5-diazaspiro[3.4]octan-6-one]
29.9	O=C1CCC2(CN(C(=O)N3CC4(CC(Cn5cnc(C(F)(F)F)n5)C4)C3)C2)N1 [Example 66, 2-[6-[[3-(trifluoromethyl)-1,2,4-triazol-1-yl]methyl]-2-carbonyl]-2,5-diazaspiro[3.4]octan-6-one]
2.13	O=C1NC2(CO1)CN(C(=O)N1CC3(CCC(Oc4ccnc(C(F)(F)F)n4)CC3)C1)C2 [Example 68, 2-[7-[2-(trifluoromethyl)pyrimi-din-4-yl]oxy-2-azaspiro[3.5]nonane-2-carbonyl]-7-oxa-2,5-diazaspiro[3.4]octan-6-one]
0.83	O=C1NC2(CO1)CN(C(=O)N1CC3(CCC(Oc4cnc(C(F)(F)F)cn4)CC3)C1)C2 [Example 69, 2-[7-[5-(trifluoromethyl)pyrazin-2-yl]oxy-2-azaspiro[3.5]nonane-2-carbonyl]-7-oxa-2,5-diazaspiro[3.4]octan-6-one]
271	O=C1CCC2(CN(C(=O)N3CC4(CC(Oc5ccc(C(F)(F)F)nn5)C4)C3)C2)N1 [Example 75, 2-[6-[6-(trifluoromethyl)pyridazin-3-yl]oxy-2-azaspiro[3.3]heptane-2-carbonyl]-2,5-diazaspiro[3.4]octan-6-one]
